# pIC50, pKi: −log10 of the molar value.
# Experiments:
# Escherichia coli [1] = experiment: Inhibition of Escherichia coli chorismate mutase assessed as ratio of IC50 to chorismate Km
# [2] = Inhibition of Mycobacterium tuberculosis chorismate mutase assessed as reduction in conversion of chorismate to prephenate using chorismate as substrate after 1 to 5 mins
# [3] = tested on: Mycobacterium tuberculosis; experiment: Antibacterial activity against Mycobacterium tuberculosis H37Rv after 7 days by microplate alamar blue assay; type: functional; conditions: 168 h
# [4] = Inhibition of Mycobacterium tuberculosis chorismate mutase assessed as reduction in conversion of chorismate to prephenate using chorismic acid as substrate after 5 mins by spectrophotometric method
# [5] = Inhibition of Escherichia coli chorismate mutase
# Escherichia coli [6] = experiment: Inhibition of Escherichia coli chorismate mutase assessed as ratio of I50 to chorismate Km
# [7] = Competitive inhibition of Bacillus subtilis chorismate mutase using varying levels of chorismic acid as substrate
# [8] = Inhibition of Mycobacterium tuberculosis H37Rv chorismate mutase assessed as reduction in conversion of chorismate to prephenate using chorismic acid as substrate by spectrophotometric method
# [9] = tested on: Mycobacterium tuberculosis; experiment: Inhibition of Mycobacterium tuberculosis chorismate mutase expressed in Escherichia coli BL21 (DE3) assessed as reduction in conversion of chorismate to prephenate at 30 uM using chorismic acid as substrate after 5 mins by spectrophotometric method relative to control
# [10] = Competitive inhibition of Escherichia coli chorismate mutase using varying levels of chorismic acid as substrate by Lineweaver-burk plot method
compound,measurement,setting,value
O=C(O)C1CC2(C(=O)O)C=CC(O)C(C2)N1 (stereo in doubt; 23),Ratio,Escherichia coli [1],18
Cc1ccc(C(C)C)cc1O [CARVACROL],pIC50,[2],5.97
O=C(O)C1CC2(C(=O)O)C=CC3C(C2)N13 (stereo not given),Ratio,Escherichia coli [1],> 20
O=C(O)C1CC2(C(=O)O)C=CC(O)C(C2)N1 (stereo in doubt; 22),Ratio,Escherichia coli [1],1.2
O=C1Nc2ccccc2/C1=C/c1ccc([N+](=O)[O-])cc1,MIC,[3],23.5 µM
same,pIC50,[4],6.00
O=C(O)C1CC2CC(C(=O)O)(C=CC2O)C1 (stereo in doubt; 16) [listing 1 of 2 here],pIC50,[5],3.37
O=C(O)C1CC2CC(C(=O)O)(C=CC2O)C1 (stereo in doubt; 17) [listing 1 of 2 here],Ratio,Escherichia coli [6],5.6
O=C(O)C1CC2([N+](=O)[O-])C=CC(O)C(C2)O1 (stereo not given),pKi,[7],6.52
O=C(O)C1CC2CC(C(=O)O)(C=CC2O)C1 (stereo in doubt; 17) [listing 2 of 2 here],pIC50,[5],3.30
CCOC(=O)C1=C(C)NC(=O)N[C@H]1c1ccccc1C#CCCO,pIC50,[8],4.83
CC(=O)c1c(C(C)(C)C)[nH]c2c(S(C)(=O)=O)cc(Cl)cc12,inhibition,[9],45%
O=C(O)c1cccc([N+](=O)[O-])c1-c1c(C(=O)O)cccc1[N+](=O)[O-],pKi,[10],4.89
O=C(O)C1CC2(C(=O)O)C=CC(O)C(C2)O1 (stereo not given),Ratio,Escherichia coli [1],0.007
O=C(O)C1CC2CC(C(=O)O)(C=CC2O)C1 (stereo in doubt; 16) [listing 2 of 2 here],Ratio,Escherichia coli [6],4.8
O=C1Nc2ccccc2C1=O [ISATIN],MIC,[3],340 µM
O=C1OC2CC3(C(=O)O)CC1NC(C3)C2O (stereo not given),Ratio,Escherichia coli [1],> 50
O=C(O)C12CC3CC(C(=O)O)(C1)C2CC3O (stereo not given),pIC50,[5],3.30
same,Ratio,Escherichia coli [6],5.6
O=C1OC2CC3(C(=O)O)CC1N1C(C3)C21 (stereo not given),Ratio,Escherichia coli [1],42
